Source: EP0330283A1, “Novel 5,6-diphenyl-1,2-dihydro-3H-pyrrolo[1,2-a]pyrrole-1-carboxylic acid derivatives” (HISAMITSU PHARMACEUTICAL CO., INC., priority 1988, dated 1989)

Tests used:
[1] = system: writhing induced by acetic acid; experiment: Inhibitory actions on the writhing induced by acetic acid in mice; type: in vivo; details: 30 mg/kg orally, 30 min before 0.6% acetic acid; male ddY mice; number of writhing vs control group
Description: As test animals, there were provided groups consisting of 7-9 male ddY strain mice weighing 20-24g. Each of the compounds indicated in the following table was orally administered to the mice of one group. Thirty minutes later, 0.6% acetic acid was abdominally administered at a dose of 0.1ml/10g. Counting of the number of writhing was started 5 minutes later than the administration of the acetic acid and continued for 10 minutes. The inhibition rates were determined by comparing the number of writhing of the test group with that of the control group and were shown in the following Table.

[2] = system: carrageenin-induced paw edema; experiment: Inhibitory actions on carrageenin-induced paw edema in rats; type: in vivo; details: Rattus norvegicus, po, 60 min before carrageenin, male Wistar rats, 3 hours after induction, vs control group, read-out: Inhibition rate; for inhibition in vivo at 30 mg/kg: 30 mg/kg orally; for inhibition in vivo at 15 mg/kg: 15 mg/kg orally
Description: Using, as test animals, male rats of Wistar strain each weighing approximately 150g, 0.1 ml of 1% x-carrageenin was subcutaneously injected into the paw of each rat to induce the reaction. Since then, the volume of paw edema was measured with the lapse of time. Each compound indicated in the following Table was orally administered to the rats 60 minutes before the induction of the reaction. As shown in the following Table, the results were expressed in terms of inhibition rate in comparison with those in control group 3 hours after the induction of the reaction.

[3] = system: arachidonic acid aggregation; experiment: Inhibitory actions on blood platelet aggregation induced by arachidonic acid (Born's nephelometry, platelet rich plasma); type: cell-based; details: arachidonic acid (350µM), rabbit PRP; for inhibition at 3 µM / inhibition at 10 µM / inhibition at 30 µM: Oryctolagus cuniculus, Platelet, read-out: Inhibiting rate
Description: (§1) Nine (9) ml of blood were drawn from the concha artery of a rabbit into a syringe containing therein 1 ml of a 3.2% solution of sodium citrate, after which the whole mass was centrifuged at 1100 rpm for 10 minutes to collect platelet rich plasma (PRP). The blood from which the PRP had been collected was again centrifuged at 3000 rpm for 5 minutes to collect platelet poor plasma (PPP). The PRP was adjusted to have 500,000/µl of platelets (thrombocytes) by the use of the PPP.
(§2) Four hundred and forty-five (445)µl of the thus adjusted PRP were introduced into a cuvette, warmed to 37° C for 5 minutes, incorporated with 5µl of a solution of each of the test compounds, further warmed for two minutes and then incorporated with 50µl of collagen (10µg/ml) or 50µl of arachidonic acid (350µM) thereby to induce platelet aggregation. The platelet aggregation was measured in accordance with the Born's nephelometry by the use of an Aggregometer produced by Sysmex Co.

gastric mucous damage = experiment: Gastric mucous damage test in rats; type: in vivo; details: 10 mg/kg orally after fasting for 18 hours; male Wistar rats; stomachs observed 3.5 hours later
Description: Using, as test animals, male rats of Wistar strain each weighing approximately 160g, the compounds of Examples 6 and 40 as well as indomethacin were each orally administered to the rats at the dose indicated in the following Table after their fasting for 18 hours. Three and a half (3.5) hours later, the rats were dissected to remove the stomachs therefrom. 10ml of a 70% ethanol were injected into the stomachs to fix them, and the stomachs were cut and washed with water and then visually observed to find whether ulcers were formed therein.

collagen aggregation = experiment: Inhibitory actions on blood platelet aggregation induced by collagen (Born's nephelometry, platelet rich plasma); type: cell-based; details: Oryctolagus cuniculus, collagen (10µg/ml), rabbit PRP, read-out: Inhibiting rate; for inhibition at 10 µM: final concentration 10 μM; for inhibition at 30 µM: final concentration 30 μM
Description: as §1, §2

With O=C(O)C1CCn2c1cc(-c1ccc(Cl)cc1)c2-c1ccc(Cl)cc1 (stereo not drawn) [Example 6, 5,6-bis(p-chlorophenyl)-1,2-dihydro-3H-pyrrolo[1,2-a]pyrrole-1-carboxylic acid] the Inhibition rate [1] was 81.3% and the inhibition in vivo at 30 mg/kg [2] was 52.3%.

O=C(NCc1ccccc1)C1CCn2c1cc(-c1ccc(Cl)cc1)c2-c1ccc(Cl)cc1 (racemic) [Example 48] was tested, and the inhibition at 3 µM ([3]; final concentration 3 µM) was 14.3%, the inhibition at 10 µM ([3]; final concentration 10 µM) was 86.5% and the inhibition at 30 µM ([3]; final concentration 30 µM) was 91%.

For COc1ccc2c(c1)c(CC(=O)O)c(C)n2C(=O)c1ccc(Cl)cc1 [Indomethacin], the Ulcer formation (gastric mucous damage) was 7/7.

With CN1CCN(NC(=O)C2CCn3c2cc(-c2ccc(Cl)cc2)c3-c2ccc(Cl)cc2)CC1 (racemic) [Example 59] the inhibition at 10 µM (collagen aggregation) was 83.4% and the inhibition in vivo at 30 mg/kg [2] was 30.5%.

With O=C(Nc1ccccc1)C1CCn2c1cc(-c1ccc(Cl)cc1)c2-c1ccc(Cl)cc1 (racemic) [Example 7, N-phenyl-5,6-bis(p-chlorophenyl)-1,2-dihydro-3H-pyrrolo[1,2-a]pyrrole-1-carboxylic acid amide] the inhibition at 10 µM (collagen aggregation) was 78% and the inhibition in vivo at 30 mg/kg [2] was 37.4%.

Compound O=C(NCCCN1CCOCC1)C1CCn2c1cc(-c1ccc(Cl)cc1)c2-c1ccc(Cl)cc1 (racemic) [Example 57] has an inhibition at 10 µM (collagen aggregation) of 89.6% and an inhibition in vivo at 30 mg/kg [2] of 31.9%.

Work on O=C(Nc1ccc(Cl)cc1)C1CCn2c1cc(-c1ccc(Cl)cc1)c2-c1ccc(Cl)cc1 (racemic) [Example 41] yielded an inhibition at 3 µM ([3]; final concentration 3 µM) of 83.4%, an inhibition at 10 µM ([3]; final concentration 10 µM) of 88.7% and an inhibition at 30 µM ([3]; final concentration 30 µM) of 89.4%.

For O=C(O)c1c(-c2ccc(Cl)cc2)c(-c2ccc(Cl)cc2)n2c1C(C(=O)O)CC2 (stereo not drawn) [Example 3, 5,6-bis(p-chlorophenyl)-1,2-dihydro-3H-pyrrolo[1,2-a]-pyrrole-1,7-dicarboxylic acid], the Inhibition rate [1] was 71.5% and the inhibition in vivo at 30 mg/kg [2] was 44.7%.

Compound CCCCNC(=O)C1CCn2c1cc(-c1ccc(Cl)cc1)c2-c1ccc(Cl)cc1 (racemic) [Example 8, N-bytyl-5,6-bis(p-chlorophenyl)-1,2-dihydro-3H-pyrrolo[1,2-a]pyrrole-1-carboxylic acid amide] has an Inhibiting rate ([3]; final concentration 3 µM) of 92.5%, an Inhibiting rate ([3]; final concentration 10 µM) of 90.2% and an Inhibiting rate ([3]; final concentration 30 µM) of 92.5%.

In the case of O=C(O)c1c(-c2ccc(F)cc2)c(-c2ccc(F)cc2)n2c1C(C(=O)O)CC2 (racemic) [Example 17], the Inhibition rate [1] is reported as 78.4% and the inhibition in vivo at 30 mg/kg [2] is reported as 42.9%.

Compound CC(C)OC(=O)C1CCn2c(-c3ccc(F)cc3)c(-c3ccc(F)cc3)c(C(=O)O)c21 (racemic) [Example 25] has an Inhibition rate [1] of 49.1% and an inhibition in vivo at 30 mg/kg [2] of 30.1%.

Work on COc1ccc(-c2cc3n(c2-c2ccc(OC)cc2)CCC3C(=O)O)cc1 (racemic) [Example 39] yielded an inhibition at 30 µM (collagen aggregation) of 61.7% and an inhibition in vivo at 15 mg/kg [2] of 34.7%.

Compound Cc1ccc(-c2cc3n(c2-c2ccc(C)cc2)CCC3C(=O)O)cc1 (racemic) [Example 37] has an inhibition at 30 µM (collagen aggregation) of 53.7%, an Inhibition rate [1] of 45.4% and an inhibition in vivo at 15 mg/kg [2] of 27.8%.

O=C(NC1CCCCC1)C1CCn2c1cc(-c1ccc(Cl)cc1)c2-c1ccc(Cl)cc1 (racemic) [Example 54] gave an inhibition at 10 µM (collagen aggregation) of 79.5%, an inhibition in vivo at 30 mg/kg [2] of 40.2% and an inhibition at 3 µM ([3]; final concentration 3 µM) of 93.5%. For the same compound, the inhibition at 10 µM ([3]; final concentration 10 µM) was 93.5% and the inhibition at 30 µM ([3]; final concentration 30 µM) was 91.9%.

Work on O=C(Nc1ccccn1)C1CCn2c1cc(-c1ccc(Cl)cc1)c2-c1ccc(Cl)cc1 (racemic) [Example 46] yielded an inhibition at 10 µM (collagen aggregation) of 64% and an inhibition in vivo at 30 mg/kg [2] of 39.4%.

Compound COc1ccc(-c2c(-c3ccc(Cl)cc3)cc3n2CCC3C(=O)O)cc1 (racemic) [Example 40] has an inhibition at 30 µM (collagen aggregation) of 63.8%, an Inhibition rate [1] of 87.3% and an inhibition in vivo at 30 mg/kg [2] of 48.2%.

O=C(C1CCn2c1cc(-c1ccc(Cl)cc1)c2-c1ccc(Cl)cc1)N1CCOCC1 (racemic) [Example 61] gave an inhibition at 3 µM ([3]; final concentration 3 µM) of 10.1%, an inhibition at 10 µM ([3]; final concentration 10 µM) of 89.4% and an inhibition at 30 µM ([3]; final concentration 30 µM) of 91.4%.

For O=C(O)C1CCn2c1cc(-c1ccc(F)cc1)c2-c1ccc(F)cc1 (racemic) [Example 38], the inhibition in vivo at 30 mg/kg [2] was 47.9%.

CC(C)OC(=O)C1CCn2c(-c3ccc(Cl)cc3)c(-c3ccc(Cl)cc3)c(C(=O)O)c21 (racemic) [Example 4, 5,6-bis(p-chlorophenyl)-1,2-dihydro-3H-pyrrolo[1,2-a]pyrrole-1-isopropyl carboxylate ester-7-carboxylic acid] showed an Inhibition rate [1] of 56.4% and an inhibition in vivo at 30 mg/kg [2] of 31.2%.
